According to patent US20090270497A1, “Treatment of Non-Localized Inflammation with pan-HDAC Inhibitors” (PHARMACYCLICS, INC., priority 2008, published 2009):

How the values were obtained:
[1] = system: Class I and Class II HDAC isoforms; experiment: HDAC isoform inhibition (all Class I and Class II); format: biochemical
[2] = system: RAW cells; experiment: Cytokine mRNA expression by RT-PCR in LPS-treated RAW cells; format: cell-based; conditions: 0.1 μM for 30 min, then 100 ng/ml LPS 6 hours
Description: RT-PCR was performed (30 cycles), and PCR products were analyzed on a 1% agarose gel. […] (FIG. 1)

[3] = system: RAW cells; experiment: Secreted cytokine protein by ELISA in LPS-treated RAW cells; format: cell-based; conditions: 0.1 μM for 30 min, LPS 100 ng/ml for 16 hr
Source text: Culture media was collected and analyzed by ELISA for TNFα, IL-1β and IL-6 proteins (n=3±S.D.). […] (FIG. 2).

[4] = system: inducible nitric oxide synthase (iNOS); experiment: iNOS expression by Western blot in LPS-treated RAW cells; format: cell-based; conditions: various amounts for 30 min, LPS 100 ng/ml 16 hours
Description: Cell lysates were analyzed by Western blot with antibodies to the inducible nitric oxide synthase (iNOS) (above) and HuR (below) as a negative control. […] (FIG. 3).

[5] = system: sepsis by treatment with LPS; experiment: Survival after induction of sepsis by LPS (endotoxemia); format: in vivo
Description: At 72 hours after induction of sepsis by treatment with LPS, a subject has a 0% chance of survival. […] This remains constant through 144 hours.
Culture media was collected and analyzed by ELISA for TNFα, IL-1β and IL-6 proteins (n=3±S.D.). […] (FIG. 4).

CN(C)Cc1c(C(=O)NCCOc2ccc(C(=O)NO)cc2)oc2ccccc12 [Compound 1]
inhibition of all Class I and Class II HDAC isoforms [1]: inhibits all Class I and Class II HDAC isoforms | RNA level of IL-1β [2]: decreased | RNA level of IL-6 [2]: decreased | RNA level of TNF [2]: decreased | IL-1β protein in culture media [3]: decreases | IL-6 protein in culture media [3]: decreases | TNFα protein in culture media [3]: decreases | iNOS expression [4]: decreases in a dose-dependant manner | chances of survival ([5]; 25 μg/gram of body weight, at 72 hours after LPS, steady through 144 hours): 30% | chances of survival ([5]; 50 μg/gram of body weight, constant through 144 hours after LPS): 70% | increase of survival from endotoxemia ([5]; FIG. 4 legend, dose not stated): 70%
